This passage reports GI50 and TGI results from PubChem BioAssay (NCI).

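Where inhibition never reached the appropriate level, the endpoint shown equals the highest concentration tested. Otherwise, values were interpolated linearly from a five-concentration, 48-hour dose response in 96-well plates. At the GI50, growth is halved. At the TGI there is no net growth.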

Test systems include 786-0 renal; DU-145 prostate; HCC-2998 colon; HT29 colon; MDA-MB-435; OVCAR-8 ovarian; SF-295 CNS; SK-MEL-2 melanoma; SR leukemia; U251 CNS.
Holding throughout (experiment): growth of human tumour cells (NCI), 48 h

Turning to `COC(=O)/C=C/c1cn(C(C)=O)c2ccc(Br)cc12`, the GI50 in the assay on 786-0 renal was 17.4 µM; in the assay with DU-145 prostate it was 32.5 µM; in the assay on HCC-2998 colon, 21.8 µM; in the assay on HT29 colon, 27.5 µM; in the assay on MDA-MB-435 it was 29 µM; in the assay with OVCAR-8 ovarian, 38.5 µM. In addition, the GI50 in the assay with SF-295 CNS is 16.1 µM; in the assay with SK-MEL-2 melanoma, 29.5 µM; in the assay with SR leukemia it was 32.5 µM; with U251 CNS it was 28.2 µM. Also, the TGI in the assay with 786-0 renal is 39.2 µM; in the assay with DU-145 prostate, > 100 µM; in the assay on HCC-2998 colon it was 64.8 µM; in the assay with HT29 colon, > 100 µM; in the assay on MDA-MB-435, > 100 µM; in the assay with OVCAR-8 ovarian, > 100 µM. Moreover, the TGI with SF-295 CNS is 40.1 µM; in the assay on SK-MEL-2 melanoma it was > 100 µM; with SR leukemia it was > 100 µM; in the assay on U251 CNS it was > 100 µM.

On to `Nc1c(C(=O)c2ccc(CCCN3CCOCC3)cc2)cnn1-c1ccc(F)cc1`, for which the GI50 in the assay on 786-0 renal, with DU-145 prostate, in the assay on HCC-2998 colon, with HT29 colon, with MDA-MB-435 and in the assay with OVCAR-8 ovarian was > 25 µM throughout. Further, the GI50 was > 25 µM in the assay on SF-295 CNS, > 25 µM in the assay on SK-MEL-2 melanoma, > 20.4 µM in the assay with SR leukemia and > 25 µM in the assay with U251 CNS. In addition, the TGI in the assay on 786-0 renal, in the assay on DU-145 prostate, with HCC-2998 colon, with HT29 colon, with MDA-MB-435 and in the assay on OVCAR-8 ovarian was > 25 µM each time. The TGI in the assay with SF-295 CNS, in the assay on SK-MEL-2 melanoma, in the assay with SR leukemia and with U251 CNS was > 25 µM throughout.

On to `C/C(=C(\c1ccc(OCCN2CCCCCC2)cc1)c1ccc(OC(=O)Cc2ccccc2)cc1)c1ccc(Cl)cc1`, for which the GI50 with 786-0 renal was 1.78 µM; in the assay on DU-145 prostate, 3.15 µM; in the assay with HCC-2998 colon, 2.72 µM; in the assay on HT29 colon, 1.05 µM; with MDA-MB-435, 2.46 µM; in the assay on OVCAR-8 ovarian it was 3.24 µM. For the same molecule, the GI50 in the assay with SF-295 CNS was 2.56 µM; in the assay with SK-MEL-2 melanoma, 3.98 µM; in the assay with SR leukemia, 0.556 µM; in the assay on U251 CNS, 2.59 µM. Further, the TGI in the assay with 786-0 renal turned out to be 3.85 µM; with DU-145 prostate, 6.32 µM; with HCC-2998 colon it was 5.57 µM; with HT29 colon, 4.01 µM; with MDA-MB-435 it was 4.66 µM; in the assay on OVCAR-8 ovarian, 6.35 µM. Also, the TGI with SF-295 CNS stood at 4.97 µM; with SK-MEL-2 melanoma it was 8.72 µM; in the assay with SR leukemia, 6.87 µM; in the assay on U251 CNS, 5.03 µM.

On to `Cc1ccc(-c2nc(N3CCCNCC3)c3oc(-c4ccccc4)nc3n2)cc1`, for which the GI50 in the assay on 786-0 renal is 1.43 µM; in the assay on DU-145 prostate, 1.89 µM; in the assay with HCC-2998 colon, 1.82 µM; in the assay with HT29 colon, 1.69 µM; in the assay with MDA-MB-435 it was 1.77 µM; with SF-295 CNS, 1.93 µM. The values for the GI50 in the assay on SK-MEL-2 melanoma, in the assay on SR leukemia and with U251 CNS were 2.03 µM, 0.239 µM and 1.78 µM, respectively. Further, the TGI with 786-0 renal worked out at 2.81 µM; in the assay with DU-145 prostate, 3.4 µM; with HCC-2998 colon it was 3.27 µM; in the assay on HT29 colon, 3.15 µM; in the assay on MDA-MB-435, 3.19 µM; in the assay on SF-295 CNS it was 3.43 µM. Besides, the TGI with SK-MEL-2 melanoma was 3.77 µM; in the assay on SR leukemia, 0.624 µM; in the assay on U251 CNS, 3.17 µM.

Regarding `CCCCCCc1nc2nc(Cl)c(Cl)nc2[nH]1`, the GI50 with 786-0 renal is > 100 µM; with DU-145 prostate, 83.2 µM; with HCC-2998 colon it was > 100 µM; with HT29 colon, > 100 µM; in the assay on MDA-MB-435, 8.68 µM; in the assay with OVCAR-8 ovarian it was > 100 µM. Besides, the figures for the GI50 in the assay with SK-MEL-2 melanoma, in the assay on SR leukemia and in the assay with U251 CNS were 5.58 µM, 8.98 µM and 6.44 µM, respectively. Besides, the TGI in the assay on 786-0 renal, in the assay with DU-145 prostate, with HCC-2998 colon, in the assay on HT29 colon, with MDA-MB-435 and in the assay on OVCAR-8 ovarian was > 100 µM in each case. Besides, the TGI with SK-MEL-2 melanoma, with SR leukemia and in the assay with U251 CNS was > 100 µM each time.

Turning to `O=C(NCc1ccncc1)C12CC3CC(C1)CC(c1ccc(Cl)cc1)(C3)C2`, the GI50 is 12.6 µM with 786-0 renal; 14.8 µM in the assay with DU-145 prostate; 14.3 µM in the assay on HCC-2998 colon; 11.9 µM with HT29 colon; 12.7 µM in the assay with MDA-MB-435; 12.7 µM in the assay on SF-295 CNS. Moreover, the GI50 in the assay with SK-MEL-2 melanoma is 14.2 µM; with SR leukemia it was 7.98 µM; in the assay on U251 CNS it was 14.2 µM. Also, the TGI is 25.8 µM with 786-0 renal; 28.6 µM with DU-145 prostate; 29.4 µM in the assay on HCC-2998 colon; 25.4 µM in the assay with HT29 colon; 25.3 µM in the assay with MDA-MB-435; 27.3 µM in the assay on SF-295 CNS. The TGI with SK-MEL-2 melanoma was found to be 28.1 µM; with SR leukemia it was 35.7 µM; in the assay with U251 CNS, 28.6 µM.
